Laboratory results as given in patent US9949971B2, “Therapeutic combinations of a BTK inhibitor, a PI3K inhibitor and/or a JAK-2 inhibitor” (Acerta Pharma B.V., priority 2014, dated 2018).

Key:
[1] = system: human platelet-mediated thrombosis; experiment: in vivo human thrombus formation in the VWF HA1 mice model (laser injury); conditions: human platelets preincubated with BTK inhibitor, laser-induced injury
Experimental: Purified human platelets were preincubated with various concentrations of the BTK inhibitors (0.1 μM, 0.5 μM, or 1 μM) or DMSO and then administered to VWF HA1 mice, followed by laser-induced thrombus formation.
The objective of this study was to evaluate in vivo thrombus formation in the presence of BTK inhibitors.

GPVI = GPVI platelet aggregation (Convulxin-induced); format: cell-based, human; conditions: for inhibition of GPVI platelet aggregation: human platelets, CVX-induced
Experimental: GPVI platelet aggregation was measured for Formula (XVIII) and Formula XX-A (ibrutinib). Blood was obtained from untreated humans, and platelets were purified from […] by centrifugation. Cells were resuspended to a final concentration of 350,000/μL in buffer containing 145 mmol/L NaCl, 10 mmol/L HEPES, 0.5 mmol/L Na2HPO4, 5 mmol/L KCl, 2 mmol/L MgCl2, 1 mmol/L CaCl2, and 0.1% glucose, at pH 7.4. Stock solutions of […] were prepared on the day of experimentation and added to platelet suspensions 5 minutes (37° C., 1200 rpm) before the induction of aggregation. Aggregation was assessed with a Chronolog Lumi-Aggregometer (model 540 VS; Chronolog, Havertown, Pa.) and permitted to proceed for 6 minutes after the addition of agonist. The results are reported as maximum percent change in light transmittance from baseline with platelet buffer used as a reference.
In FIG. 97, the results of CVX-induced (250 ng/mL) human platelet aggregation results before and 15 minutes after administration of the BTK inhibitors to 6 healthy individuals are shown.

B cell lymphoma = experiment: veterinary clinical trial in canine lymphoma; format: in vivo, dog; conditions: companion dogs with B cell lymphoma
NK cells [2] = experiment: NK cell degranulation/ADCC whole blood assay with obinutuzumab; format: cell-based, human; conditions: whole blood pretreated 1 hour, MEC-1 cells opsonised with obinutuzumab 1 μg/mL, 4 hours, n=3
Experimental: Degranulation in whole blood was performed as follows. […] Exponentially growing cells were used. On the day of the experiment, 8 mL of blood was drawn from a normal volunteer into a test tube containing desirudin to obtain a final concentration of 50 μg/mL. A white blood cell (WBC) count of whole blood was performed. […] 170 μL aliquots of unmanipulated whole blood were incubated with 10 μL BTK inhibitors or X-VIVO 15 medium for one hour into a plate. […] The samples were placed in a 5% CO2 incubator for 4 hours at 37° C.
After 4 hours, the samples were mixed gently and 50 μL aliquots were removed from each well and placed in fluorescence-activated cell sorting (FACS) test tubes. A 20 μL aliquot of anti-CD56-APC antibody and anti-CD107a-PE antibody was added. The samples were incubated for 20 minutes at room temperature in the dark. An aliquot of 2 mL of FACS lysing solution (BD Biosceinces) was added. The samples were again incubated for 5 minutes, and then centrifuged at 2000 rpm for 5 minutes. Supernatant was discarded and the cell pellet was resuspended in 500 μL of PBS. The samples were analyzed on the flow cytometer for CD107a^+ NK cells (CD56^+).

NK cells [3] = experiment: rituximab ADCC mediated by NK cells; format: cell-based
Source text: H. E. Kohrt, et al., Blood 2014, 123, 1957-60.

BCR = experiment: in vivo potency: BCR activation markers CD69 and CD86 after IgM stimulation; design: species or system mouse; conditions: mice gavaged, 3 hours post-dose, BCR stimulated with IgM, flow cytometry
Experimental: Mice were gavaged at increasing drug concentration and sacrificed at one time point (3 hours post-dose). BCR is stimulated with IgM and the expression of activation markers CD69 and CD86 are monitored by flow cytometry to determine EC50values.
CD86 and CD69 are cell surface proteins that are BCR activation markers. […] BCR was stimulated with IgM and the expression of activation marker CD69 and CD86 are monitored by flow cytometry and to determine EC50 values.

CYP3A4 = CYP3A4 (Homo sapiens, UniProt P08684); experiment: In vitro loss of parent drug as catalyzed by CYPs; nonclinical CYP interaction studies; format: in vitro ADME
Sequence of CYP3A4 (P08684 whole entry): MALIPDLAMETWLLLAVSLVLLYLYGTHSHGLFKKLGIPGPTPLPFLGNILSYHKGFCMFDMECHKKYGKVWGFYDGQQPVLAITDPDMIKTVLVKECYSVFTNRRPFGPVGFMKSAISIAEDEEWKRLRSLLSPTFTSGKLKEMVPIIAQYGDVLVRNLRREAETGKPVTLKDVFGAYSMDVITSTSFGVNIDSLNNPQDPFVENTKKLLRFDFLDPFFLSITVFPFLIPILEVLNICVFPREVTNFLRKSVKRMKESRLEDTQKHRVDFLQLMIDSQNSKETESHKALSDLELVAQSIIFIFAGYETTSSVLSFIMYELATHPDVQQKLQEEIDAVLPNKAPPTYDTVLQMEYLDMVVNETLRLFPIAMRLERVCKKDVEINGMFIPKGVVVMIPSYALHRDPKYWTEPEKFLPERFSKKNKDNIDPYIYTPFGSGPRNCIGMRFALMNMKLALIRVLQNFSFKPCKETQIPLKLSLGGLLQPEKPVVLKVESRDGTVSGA

[4] = system: mouse, rat, dog, rabbit, monkey, and human hepatocytes; experiment: In vitro metabolism studies in hepatocytes with 14C-labeled compound; format: in vitro ADME
[5] = Glutathione binding and depletion in vitro; format: in vitro ADME
[6] = system: NK cells and monocytic MDSC subsets; experiment: Flow cytometry of peripheral blood cell subsets in CLL patients, predose vs 28 days; format: in vivo, human; conditions: patients with falling ALC counts; after 28 days of dosing
Experimental: PBMCs were stained with monoclonal antibodies conjugated to fluorescent tags (flourochromes) to identify cell subsets via flow cytometry. Non-viable cells were excluded from the analysis using the dye 7-aminoactinomycin D (7-AAD). To produce the metric of percent change, the following steps were taken. First, each cell subset was defined by hierarchical flow cytometry gating. Then, the change in frequency (between day 1 and day 28) was calculated for each cell subset. MDSC subsets were measured as a % of all myeloid cells. T cell subsets were measured as a % of all CD3^+ cells, and NK cells were measured as a % of all live CD45^+ cells. […] A cycle is 28 days. A trend is observed wherein patients with decreasing ALC % had increasing MDSC (monocytic) %. This may include patients who had quickly resolving lymphocytosis and those with no initial lymphocytosis. […] This may include patients who had quickly resolving lymphocytosis and those having no initial lymphocytosis. The effects in FIG. 107 to FIG. 110 are observed in multiple cohorts, at doses including 100 mg BID, 200 mg QD, and 400 mg QD. In FIG. 111 and FIG. 112, the effects on NK cells and MDSC cells are compared to a number of other markers versus % change in ALC at C1D28 and C2D28. These other markers include CD4+ T cells, CD8+ T cells, CD4+/CD8+ T cell ratio, NK-T cells, PD-1+ CD4+ T cells, and PD-1+ CD8+ T cells. […]

BTK = biological target: T1, BTK (Mus musculus, UniProt P35991); experiment: Molecular probe assay of irreversible BTK occupancy in MDSCs from tumor bearing PDA mice; format: in vivo; conditions: 15 mg/kg BID, Day 8, 4 hours post dose (N=5)
T1 construct: MDSCs were purified from tumor bearing PDA mice; endogenous in cells; host or cells: granulocytic and monocytic MDSCs from tumor bearing PDA mice
T1 sequence (P35991 whole entry): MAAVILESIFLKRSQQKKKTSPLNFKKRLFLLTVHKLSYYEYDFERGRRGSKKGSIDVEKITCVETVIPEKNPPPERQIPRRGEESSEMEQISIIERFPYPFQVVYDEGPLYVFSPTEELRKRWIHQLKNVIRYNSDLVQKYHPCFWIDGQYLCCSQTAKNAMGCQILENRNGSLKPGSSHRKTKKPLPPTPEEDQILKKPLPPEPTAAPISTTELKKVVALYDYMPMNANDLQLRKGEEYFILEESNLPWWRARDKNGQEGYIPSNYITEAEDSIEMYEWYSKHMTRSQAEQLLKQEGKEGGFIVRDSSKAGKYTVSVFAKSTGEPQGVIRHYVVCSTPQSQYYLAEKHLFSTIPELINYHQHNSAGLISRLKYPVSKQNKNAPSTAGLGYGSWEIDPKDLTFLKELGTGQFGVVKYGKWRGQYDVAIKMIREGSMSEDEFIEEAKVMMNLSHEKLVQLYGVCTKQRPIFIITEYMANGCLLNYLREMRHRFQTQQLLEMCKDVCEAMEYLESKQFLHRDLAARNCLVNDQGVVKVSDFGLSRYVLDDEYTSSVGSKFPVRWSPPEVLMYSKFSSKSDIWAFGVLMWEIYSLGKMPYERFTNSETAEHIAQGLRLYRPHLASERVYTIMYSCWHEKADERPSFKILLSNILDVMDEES
Source text: A molecular probe assay was used to calculate the percent irreversible occupancy of total BTK.

EGFR = EGFR (Homo sapiens, UniProt P00533); experiment: in vitro EGFR phosphorylation in A431 cells; conditions: 10 μM, A431 human epidermoid cancer cell line
Sequence of EGFR (P00533 25-1210): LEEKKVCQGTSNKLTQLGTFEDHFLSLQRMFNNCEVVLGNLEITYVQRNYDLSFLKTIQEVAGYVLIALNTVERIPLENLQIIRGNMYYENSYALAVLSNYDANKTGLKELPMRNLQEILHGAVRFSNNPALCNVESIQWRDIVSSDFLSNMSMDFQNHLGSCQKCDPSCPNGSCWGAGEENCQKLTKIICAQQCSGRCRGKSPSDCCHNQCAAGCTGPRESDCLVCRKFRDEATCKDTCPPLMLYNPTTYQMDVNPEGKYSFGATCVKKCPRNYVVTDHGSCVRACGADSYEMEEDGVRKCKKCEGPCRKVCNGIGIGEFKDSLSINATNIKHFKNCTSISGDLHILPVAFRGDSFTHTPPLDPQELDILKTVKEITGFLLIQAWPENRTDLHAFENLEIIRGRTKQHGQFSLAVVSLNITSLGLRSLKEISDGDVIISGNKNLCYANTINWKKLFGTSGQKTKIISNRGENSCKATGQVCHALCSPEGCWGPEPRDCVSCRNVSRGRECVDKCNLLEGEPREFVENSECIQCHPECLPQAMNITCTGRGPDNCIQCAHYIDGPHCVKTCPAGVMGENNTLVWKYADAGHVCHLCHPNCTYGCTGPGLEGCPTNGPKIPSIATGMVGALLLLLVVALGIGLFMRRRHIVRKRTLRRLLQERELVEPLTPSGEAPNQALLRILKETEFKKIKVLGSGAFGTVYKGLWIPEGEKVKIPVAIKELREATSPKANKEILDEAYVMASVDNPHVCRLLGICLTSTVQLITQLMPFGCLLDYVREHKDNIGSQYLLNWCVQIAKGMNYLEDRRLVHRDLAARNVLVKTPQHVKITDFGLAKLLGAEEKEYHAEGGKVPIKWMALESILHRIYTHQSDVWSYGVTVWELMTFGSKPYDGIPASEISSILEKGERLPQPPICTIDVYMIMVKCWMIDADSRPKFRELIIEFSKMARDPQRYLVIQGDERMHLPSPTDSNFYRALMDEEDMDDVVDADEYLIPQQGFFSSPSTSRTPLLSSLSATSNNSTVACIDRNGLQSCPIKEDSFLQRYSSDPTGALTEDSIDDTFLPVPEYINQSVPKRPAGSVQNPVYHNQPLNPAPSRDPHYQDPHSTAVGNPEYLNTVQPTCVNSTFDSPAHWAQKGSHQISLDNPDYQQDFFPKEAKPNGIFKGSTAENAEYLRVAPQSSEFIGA

[7] = study of respiratory function (GLP safety pharmacology); conditions: rats, doses through 300 mg/kg (the highest dose level)
[8] = functional observation battery (GLP safety pharmacology); conditions: rats, doses through 300 mg/kg (the highest dose level)
[9] = system: signals through the B cell receptor (CD69 on gated CD19+ B cells); experiment: Whole blood inhibition of B cell receptor signals (anti-IgD induced CD69 on CD19+ B cells, flow cytometry); format: cell-based; conditions: whole blood of four healthy donors, 2 h incubation, anti-human IgD 10 μg/mL 18 h
Experimental: Blood from four healthy donors was incubated for 2 hours with the compounds shown over a concentration range, and then stimulated with anti-human IgD [10 μg/mL] for 18 hours. The mean fluorescent intensity (MFI) of CD69 (and CD86, data not shown) on gated CD19+ B cells was measured by flow cytometry.

previously treated CLL = conditions: Phase 1, monotherapy; cited from earlier work
[10] = in vivo; cited from earlier work

Q: With `C=CC(=O)Nc1cccc(Nc2nc(Nc3ccc(OCCOC)cc3)ncc2F)c1` [Formula (XXVII), N-(3-((5-fluoro-2-((4-(2-methoxyethoxy)phenyl)amino)pyrimidin-4-yl)amino)phenyl)acrylamide] as the molecule, how does the “effect on human platelet-mediated thrombus formation” value [1] read?
A: Its value is “effect similar to Formula XX-A (ibrutinib)”.

Q: What does the source list for `CC#CC(=O)N1CCC[C@H]1c1nc(-c2ccc(C(=O)Nc3ccccn3)cc2)c2c(N)nccn12` [Formula (XVIII), (S)-4-(8-amino-3-(1-(but-2-ynoyl)pyrrolidin-2-yl)imidazo[1,5-a]pyrazin-1-yl)-N-(pyridin-2-yl)benzamide]?
A: IC50 (GPVI; Platelet, purified human platelets, Convulxin (CVX)): 1150 nM; inhibition of GPVI platelet aggregation (GPVI): does not; complete responses (CR) (B cell lymphoma): not observed; effect on percentage of CD56+/CD107a+ NK cells (obinutuzumab-stimulated NK cell degranulation) (NK cells [2]): minimal effect; antagonism of rituximab ADCC effects mediated by NK cells (NK cells [3]): does not antagonize rituximab ADCC effects; in vivo potency at inhibiting expression of activation markers CD69 and CD86, versus ibrutinib (BCR): more potent; Metabolism by CYPs (loss of parent drug) (CYP3A4; in vitro): metabolized by CYP3A4; Potential for clinical drug-drug interactions through CYP substrates (CYP3A4; nonclinical CYP interaction studies): very unlikely to cause clinical drug-drug interactions; Metabolites formed in hepatocytes ([4]; 14C-labeled compound, mouse, rat, dog, rabbit, monkey, human hepatocytes): two mono-oxidized metabolites and a glutathione conjugate; Unique human metabolite ([4]; hepatocytes): No unique human metabolite was identified; Glutathione binding / depletion [5]: binds to glutathione but does not deplete glutathione; NK cells and monocytic MDSC subsets in peripheral blood [6]: increase in frequency; Irreversible occupancy of total BTK in granulocytic and monocytic MDSCs (BTK): Complete BTK occupancy; inhibition of in vitro EGFR phosphorylation (EGFR): no inhibition; respiratory function [7]: no treatment-related adverse effects; neurobehavioral effects or body temperature [8]: no adverse effects

Q: With `C=CC(=O)Nc1cccc(Nc2nc(Nc3ccc(OCCOC)cc3)ncc2F)c1` [CC-292] as the molecule, how does the EC50 [9] read?
A: The EC50 was 121 nM.

Q: Which “inhibition of GPVI platelet aggregation” value (GPVI) does the source give for `C=CC(=O)N1CCC[C@@H](n2nc(-c3ccc(Oc4ccccc4)cc3)c3c(N)ncnc32)C1` [ibrutinib, 1-[(3R)-3-[4-amino-3-(4-phenoxyphenyl)-1H-pyrazolo[3,4-d]pyrimidin-1-yl]piperidin-1-yl]prop-2-en-1-one] here?
A: Its value is “significantly inhibits GPVI platelet aggregation”.

Q: And the “antagonism of rituximab ADCC effects mediated by NK cells” value (NK cells [3])?
A: The value was “undesirably antagonizes rituximab ADCC effects”.

Q: Which “MRD-negative complete response, number” value (previously treated CLL) does the source give for “obinutuzumab: type II glycoengineered CD20 monoclonal antibody” here?
A: Its value is 1.

Q: What about the Response rate (previously treated CLL) of the same molecule?
A: Its Response rate is 62%.

Q: And the “Grade 3 IRRs” value [10]?
A: Its value is 15%.

Q: What about the “Grade 3 reactions among hypotension cases” value [10] of the same molecule?
A: Its value is 25%.

Q: What about the “Grade 4 IRRs” value [10] of the same molecule?
A: The value was “no Grade 4”.

Q: What about the “IRR cases developing symptoms of hypotension” value [10] of the same molecule?
A: The value was 60%.

Q: What about the “Patients developing IRR” value [10] of the same molecule?
A: Its value is 95%.

Q: What about the “Patients experiencing IRRs” value [10] of the same molecule?
A: The value was “all patients”.

Q: And the “Patients experiencing all grade AE” value [10]?
A: Its value is 100%.
